Measured values reported in patent US6410528B1, “Morpholino ethers” (Glaxo Wellcome S.A., priority 1998, dated 2002).
Values after ≈ are worked out from the molar mass of the structure shown.

Experiments:
C. albicans 4711E = test: in vitro antifungal screen, MIC by two-fold serial dilution; format: cell-based, Candida albicans
Experimental: (§1) The antifungal activity of the compounds of formula (I) may be determined using conventional in vitro and in vivo screens. Thus, the in vitro evaluation of the anti-fungal activity of compounds of the invention was performed on liquid or solid medium by the anti-fungal two-fold serial dilution technique of determining the minimum inhibitory concentration (MIC) of anti-fungal agent that inhibited development of growth after 24 to 48 hours of incubation at 37° C. In practice, a series of agar plates or broth microdilution panels containing two-fold dilutions of anti-fungal agent tested were inoculated with a standard culture of a clinically relevant pathogen, for example, Candida albicans. The agar plates or broth microdulution panels were then examined for the presence or absence of growth of the fungus and the appropriate MIC values were noted.
(§2) Compounds of formula (I) have been tested for anti fungal activity in a standard in vitro screen and the minimum inhibiting concentration (MIC; μg/ml) determined for each compound against a variety of clinically relevant pathogens.

C. albicans CL-236 = test: as above; format: cell-based, Candida albicans
Experimental: as §1, §2

C. glabrata 2375E = test: as above; format: cell-based, Candida glabrata
Experimental: as §1, §2

C. glabrata 522 = test: as above; format: cell-based, Candida glabrata
Experimental: as §1, §2

C. tropicalis 2808E = test: as above; format: cell-based, Candida tropicalis
Experimental: as §1, §2

C. parapsilosis 2372E = test: as above; format: cell-based, Candida parapsilosis
Experimental: as §1, §2

[1] = tested on: C. pseudotropicalis 2371E; test: as above; format: cell-based, Candida pseudotropicalis
Experimental: as §1, §2

C.albicans 4711E = test: system candidiasis test in mice; format: in vivo; settings: administered orally, system candidiasis test (C.albicans 4711E) in mice
Experimental: The fungicidal activity of the compounds of formula (I) may also be determined in conventional tests in animals e.g. rats and mice. For example the lethal systems candidiasis test in mice.
(§3) The compounds of the invention are essentially non-toxic at therapeutically useful levels. For example, the compound of Example 2 when admistered orally in a system candidiasis test (C.albicans 4711E) in mice, has an ED50 value of 9.0 mg/kg. The LD50 value for the compound of example 2, in female mice is >300 mg/kg iv.

[2] = toxicity (LD50) in female mice; format: in vivo; settings: iv
Experimental: as §3

CC1CN(Cc2ccccc2)CC(OCC23CC4C(C)CCC4C4(C=O)CC2C=C(C(C)C)C43C(=O)O)O1 [Example 1i, [1R-(1α,3aβ,4β,4aβ,7β,7aα,8aβ)]8a-[(2R,6R)-(4-benzyl-6-methylmorpholin-2-yl)-oxymethyl]-4-formyl-4,4a,5,6,7,7a,8,8a-octahydro-7-methyl-3-(1-methylethyl)-1,4-methano-s-indacene-3a(1H)-carboxylic acid]
MIC (C. albicans 4711E): ≦0.001 μg/ml
MIC (C. albicans CL-236): ≦0.001 μg/ml
MIC (C. glabrata 2375E): 1 µg/mL (≈ 1.92 µM)
MIC (C. glabrata 522): 1 µg/mL (≈ 1.92 µM)
MIC (C. tropicalis 2808E): 0.008 µg/mL (≈ 0.0153 µM)
MIC (C. parapsilosis 2372E): >125 µg/mL

C=CCN1CC(C)OC(OCC23CC4C(C)CCC4C4(C=O)CC2C=C(C(C)C)C43C(=O)O)C1 [Example 2, [1R-(1α,3aβ,4β,4aβ,7β, 7aα,8aβ)]8a-[(2R,6R)-(4-allyl-6-methyl-morpholin-2-yl)-oxymethyl]-4-formyl-4,4a,5,6,7,7a,8,8a-octahydro-7-methyl-3-(1-methylethyl)-1,4-methano-s-indacene-3a(1H)-carboxylic acid]
MIC (C. albicans 4711E): 0.008 µg/mL (≈ 0.017 µM)
MIC (C. albicans CL-236): 0.03 µg/mL (≈ 0.0636 µM)
MIC (C. glabrata 2375E): 0.5 µg/mL (≈ 1.06 µM)
MIC (C. glabrata 522): 0.5 µg/mL (≈ 1.06 µM)
MIC (C. tropicalis 2808E): 0.03 µg/mL (≈ 0.0636 µM)
MIC [1]: 0.004 µg/mL (≈ 0.00848 µM)
MIC (C. parapsilosis 2372E): >125 µg/mL
ED50 (C.albicans 4711E): 9.0 mg/kg
LD50 [2]: > 300 mg/kg

CC1CN(C2CC2)CC(OCC23CC4C(C)CCC4C4(C=O)CC2C=C(C(C)C)C43C(=O)[O-])O1.[K+] [Example 4, [1R-(1α,3aβ,4β,4aβ,7β,7aα,8aβ)]8a-[(2R,6R)-(4-cyclopropyl-6-methyl-morpholin-2-yl)-oxymethyl]-4-formyl-4,4a,5,6,7,7a,8,8a-octahydro-7-methyl-3-(1-methylethyl)-1,4-methano-s-indacene-3a(1H)-carboxylic acid, potassium salt]
MIC (C. albicans 4711E): ≦0.001 μg/ml
MIC (C. albicans CL-236): 0.015 µg/mL
MIC (C. glabrata 2375E): 4 µg/mL
MIC (C. glabrata 522): 4 µg/mL
MIC (C. tropicalis 2808E): 0.06 µg/mL
MIC [1]: 0.004 µg/mL
MIC (C. parapsilosis 2372E): >125 µg/mL

C#CCN1CC(C)OC(OCC23CC4C(C)CCC4C4(C=O)CC2C=C(C(C)C)C43C(=O)O)C1 [Example 6, [1R-(1α,3aβ,4β,4aβ,7β,7aα,8aβ)]8a-[(2R,6R)-(4-(2-propynyl)-6-methyl-morpholin-2-yl)-oxymethyl]-4-formyl-4,4a,5,6,7,7a,8,8a-octahydro-7-methyl-3-(1-methylethyl)-1,4-methano-s-indacene-3a(1H)-carboxylic acid]
MIC (C. albicans 4711E): 0.008 µg/mL (≈ 0.017 µM)
MIC (C. albicans CL-236): 0.015 µg/mL (≈ 0.0319 µM)
MIC (C. glabrata 2375E): 0.25 µg/mL (≈ 0.532 µM)
MIC (C. glabrata 522): 0.5 µg/mL (≈ 1.06 µM)
MIC (C. tropicalis 2808E): 0.06 µg/mL (≈ 0.128 µM)
MIC [1]: 0.015 µg/mL (≈ 0.0319 µM)
MIC (C. parapsilosis 2372E): 16 µg/mL (≈ 34.1 µM)

C=C(Br)CN1CC(C)OC(OCC23CC4C(C)CCC4C4(C=O)CC2C=C(C(C)C)C43C(=O)O)C1 [Example 7, [1R-(1α,3aβ,4β,4aβ,7β,7aα,8aβ)]8a-[(2R,6R)-(4-(2-bromoallyl)-6-methyl-morpholin-2-yl)-oxymethyl]-4-formyl-4,4a,5,6,7,7a,8,8a-octahydro-7-methyl-3-(1-methylethyl)-1,4-methano-s-indacene-3a(1H)-carboxylic acid]
MIC (C. albicans 4711E): ≦0.001 μg/ml
MIC (C. albicans CL-236): 0.008 µg/mL (≈ 0.0145 µM)
MIC (C. glabrata 2375E): 0.25 µg/mL (≈ 0.454 µM)
MIC (C. glabrata 522): 0.25 µg/mL (≈ 0.454 µM)
MIC (C. tropicalis 2808E): 0.008 µg/mL (≈ 0.0145 µM)
MIC [1]: ≦0.001 μg/ml
MIC (C. parapsilosis 2372E): 4 µg/mL (≈ 7.27 µM)

C=C(Cl)CN1CC(C)OC(OCC23CC4C(C)CCC4C4(C=O)CC2C=C(C(C)C)C43C(=O)O)C1 (stereo not drawn) [Example 8, [1R-(1α,3aβ,4β,4aβ,7β,7aα,8aβ)]8a-[(2R6R)-(4-(2-chloroallyl)-6-methyl-morpholin-2-yl)-oxymethyl]-4-formyl-4,4a,5,6,7,7a,8,8a-octahydro-7-methyl-3-(1-methylethyl)-1,4-methano-s-indacene-3a(1H)-carboxylic acid]
MIC (C. albicans 4711E): ≦0.001 μg/ml
MIC (C. albicans CL-236): ≦0.001 μg/ml
MIC (C. glabrata 2375E): 0.03 µg/mL (≈ 0.0593 µM)
MIC (C. glabrata 522): 0.03 µg/mL (≈ 0.0593 µM)
MIC (C. tropicalis 2808E): ≦0.001 μg/ml
MIC [1]: ≦0.001 μg/ml
MIC (C. parapsilosis 2372E): 1 µg/mL (≈ 1.98 µM)

CC1CN(CC=C(F)F)CC(OCC23CC4C(C)CCC4C4(C=O)CC2C=C(C(C)C)C43C(=O)O)O1 [Example 10, [1R-(1α,3aβ,4β,4aβ,7β,7aα,8aβ)]8a-[(2R,6R)-(4-(3,3-difluoroallyl)-6-methyl-morpholin-2-yl)-oxymethyl]-4-formyl-4,4a,5,6,7,7a,8,8a-octahydro-7-methyl-3-(1-methylethyl)-1,4-methano-s-indacene-3a(1H)-carboxylic acid]
MIC (C. albicans 4711E): 0.03 µg/mL (≈ 0.0591 µM)
MIC (C. albicans CL-236): 0.06 µg/mL (≈ 0.118 µM)
MIC (C. glabrata 2375E): 1 µg/mL (≈ 1.97 µM)
MIC (C. glabrata 522): 1 µg/mL (≈ 1.97 µM)
MIC (C. tropicalis 2808E): 0.06 µg/mL (≈ 0.118 µM)
MIC [1]: 0.03 µg/mL (≈ 0.0591 µM)
MIC (C. parapsilosis 2372E): 16 µg/mL (≈ 31.5 µM)

C=C(C)CN1C[C@H](OC[C@@]23C[C@@H]4[C@H](C)CC[C@H]4[C@@]4(C=O)C[C@@H]2C=C(C(C)C)[C@@]34C(=O)O)O[C@H](C)C1 [Example 12]
MIC (C. albicans 4711E): ≦0.001 μg/ml
MIC (C. albicans CL-236): ≦0.001 μg/ml
MIC (C. glabrata 2375E): 0.25 µg/mL (≈ 0.515 µM)
MIC (C. glabrata 522): 0.25 µg/mL (≈ 0.515 µM)
MIC (C. tropicalis 2808E): 0.008 µg/mL (≈ 0.0165 µM)
MIC [1]: ≦0.001 μg/ml
MIC (C. parapsilosis 2372E): 1 µg/mL (≈ 2.06 µM)

C=C=CCN1CC(C)OC(OCC23CC4C(C)CCC4C4(C=O)CC2C=C(C(C)C)C43C(=O)O)C1 [Example 14, [1R-(1α,3aβ,4β,4aβ,7β,7aα,8aβ)]8a-[(2R,6R)-4-(2,3-butadienyl)-6-methyl-morpholin-2-yl)-oxymethyl]-4-formyl-4,4a,5,6,7,7a,8,8a-octahydro-7-methyl-3-(1-methylethyl)-1,4-methano-s-indacene-3a(1H)-carboxylic acid]
MIC (C. albicans 4711E): ≦0.001 μg/ml
MIC (C. albicans CL-236): 0.004 µg/mL (≈ 0.00827 µM)
MIC (C. glabrata 2375E): 0.12 µg/mL (≈ 0.248 µM)
MIC (C. glabrata 522): 0.12 µg/mL (≈ 0.248 µM)
MIC (C. tropicalis 2808E): 0.015 µg/mL (≈ 0.031 µM)
MIC [1]: ≦0.001 μg/ml
MIC (C. parapsilosis 2372E): 8 µg/mL (≈ 16.5 µM)

COc1ccc(CN2CC(C)OC(OCC34CC5C(C)CCC5C5(C=O)CC3C=C(C(C)C)C54C(=O)O)C2)cc1 [Example 16, [1R-(1α,3aβ,4β,4aβ,7β,7aα,8β)]8a-[(2R,6R)4-(4-methoxybenzyl)-6-methyl-morpholin-2-yl)-oxymethyl]-4-formyl-4,4a,5,6,7,7a,8,8a-octahydro-7-methyl-3-(1-methylethyl)-1,4-methano-s-indacene-3a(1H)-carboxylic acid]
MIC (C. albicans 4711E): ≦0.001 μg/ml
MIC (C. albicans CL-236): ≦0.001 μg/ml
MIC (C. glabrata 2375E): 0.25 µg/mL (≈ 0.453 µM)
MIC (C. glabrata 522): 0.25 µg/mL (≈ 0.453 µM)
MIC (C. tropicalis 2808E): 0.008 µg/mL (≈ 0.0145 µM)
MIC [1]: ≦0.001 μg/ml
MIC (C. parapsilosis 2372E): 2 µg/mL (≈ 3.63 µM)

CON1CC(C)OC(OCC23CC4C(C)CCC4C4(C=O)CC2C=C(C(C)C)C43C(=O)O)C1 [Example 18, 1R-(1α,3aβ,4β,4aβ,7β,7aα,8aβ)]8a-[(2R,6R)-6-methyl-4-methoxy-morpholin-2-yl)-oxymethyl]-4-formyl-4,4a,5,6,7,7a,8,8a-octahydro-7-methyl-3-(1-methylethyl)-1,4-methano-s-indacene-3a(1H)-carboxylic acid]
MIC (C. albicans 4711E): 0.03 µg/mL (≈ 0.065 µM)
MIC (C. albicans CL-236): 0.25 µg/mL (≈ 0.542 µM)
MIC (C. glabrata 2375E): 8 µg/mL (≈ 17.3 µM)
MIC (C. glabrata 522): 8 µg/mL (≈ 17.3 µM)
MIC (C. tropicalis 2808E): 1 µg/mL (≈ 2.17 µM)
MIC (C. parapsilosis 2372E): >125 µg/mL

C=CCN1C[C@H](OC[C@@]23C[C@@H]4[C@H](C)CC[C@H]4[C@@]4(C#N)C[C@@H]2C=C(C(C)C)[C@@]34C(=O)O)O[C@H](C)C1 [Example 25, [1R-(1α,3aβ,4β,4aβ,7β,7aα,8aβ)]8a-[(2R,6R)-(4-allyl-6-methyl-morpholin-2-yl)-oxymethyl]-4-cyano4,4a,5,6,7,7a,8,8a-octahydro-7-methyl-3-(1-methylethyl)-1,4-methano-s-indacene-3a(1H)-carboxylic acid]
MIC (C. albicans 4711E): 0.25 µg/mL (≈ 0.533 µM)
MIC (C. albicans CL-236): 0.25 µg/mL (≈ 0.533 µM)
MIC (C. glabrata 2375E): 0.5 µg/mL (≈ 1.07 µM)
MIC (C. glabrata 522): 0.5 µg/mL (≈ 1.07 µM)
MIC (C. tropicalis 2808E): 0.5 µg/mL (≈ 1.07 µM)
MIC [1]: 0.12 µg/mL (≈ 0.256 µM)
MIC (C. parapsilosis 2372E): >125 µg/mL
